# Patent US8530183B2, “Zinc sensors for cellular imaging” (The Board of Regents of the University of Texas System, priority 2010, dated 2013)
# Legend:
# [1] = tested on: pancreatic islets; experiment: Confocal imaging of dye uptake and insulin/Zn2+ release in pancreatic islets; assay type: cell-based, mouse
# Procedure: FIGS. 8A-C. Imaging insulin/Zn^2+ release in islets by confocal laser scanning microscopy. (FIGS. 8A-B) Confocal images of mouse islets labeled with ZIMIR (FIG. 8A) or calcein/AM (FIG. 8B). (FIG. 8C) Confocal ZIMIR imaging of insulin/Zn^2+ release in a mouse islet bathed in SAB. Images from two example layers 15 μm apart before and 10 sec post KCl (40 mM) stimulation were shown.
# FIG. 11. ZIMIR rapidly labels cells of intact human islets. Representative CLSM images of a ZIMIR labeled human islet at three focal planes 20 μm apart.
# Islets labeling and ZIMIR imaging by confocal laser scanning microscopy. Experiments with rodent animals were carried out according to protocols approved by the Institutional Animal Care and Use Committee of University of Texas Southwestern Medical Center. Rodent islets were isolated from Sprague-Dawley rats or C57BL/6 mice after digesting exocrine tissues of pancreas using collagenase as described below. To image insulin release in islets, the inventors labeled islets with ZIMIR (final concentration 2 μM with 0.025% Pluronic) in SAB buffer for […]. Labeled islets were then transferred to an imaging dish that had been coated with 0.5% PuraMatrix peptide hydrogel (BD Biosciences, Cat # 354250). Islets adhered to the PuraMatrix hydrogel within 5 min. They then imaged ZIMIR fluorescence by confocal laser scanning microscopy using a LSM510 imaging system (Carl Zeiss) and a 40× oil immersion objective (Dakin and Li, 2007).
# Confocal imaging of ZIMIR uptake and insulin/Zn^2+ release in pancreatic islets. In addition to cultured cells, ZIMIR also rapidly and noninvasively labels cells in preparations such as dissected pancreatic islets. After loading islets with ZIMIR (2 μM) for 25 min, the inventors applied CLSM to track the distribution of ZIMIR in three dimensions (3D). […] The result confirmed that ZIMIR readily diffused through the interstitial space to reach interior cells, whereas calcein/AM was trapped by cells in the outer layer, unable to penetrate any deeper. After labeling, the inventors depolarized cells with high concentration of KCl.
# [2] = tested on: MIN6 cells; experiment: Cellular uptake and membrane labeling followed by confocal laser scanning microscopy; assay type: cell-based, mouse
# Procedure: FIGS. 4A-F. ZIMIR labels plasma membranes of intact living cells rapidly, non-invasively and stably. ZIMIR (1 μM) was added to MIN6 cells in FIBS buffer (containing ˜1 μM Zn^2+ enhance fluorescence intensity). Confocal images (Ex 488 nm, Em 510-550 nm) were subsequently acquired at 2 min (FIG. 4A), 5 min (FIG. 4B), 10 min (FIG. 4C), and 20 min (FIG. 4D). Cells were then washed with FIBS buffer three times and imaged again at 21 min (FIG. 4E), and 140 min (FIG. 4F).
# Cell culture and ZIMIR imaging by wide field fluorescence microscopy. Details of cell culture are described below. For cell imaging, we cultured cells in 35 mm petri dishes with glass-bottoms (MatTek, Ashland, Mass.). To label cells with ZIMIR, cells were washed with a Secretion Assay Buffer (SAB) containing 114 mM NaCl, 4.7 mM KCl, 1.2 mM KH2PO4, 2.5 mM CaCl2, 1.16 mM MgSO4, 3 mM glucose, and 20 mM HEPES (pH 7.4). The DMSO stock solution of ZIMIR. (1-2 mM) diluted in a small volume of SAB was added to cells to a final concentration of 1 μM. Cells were then incubated at ˜25° C. for 20 min and washed with SAB before imaging. To image insulin/Zn^2+ secretion, we routinely included 10 μM of EDTA in SAB to chelate the residual Zn^2+ and to reduce the baseline fluorescence. In addition, DPAS (2-4 μM) was added to SAB in some experiments to better resolve the dynamics of oscillatory insulin release.
# ZIMIR uptake and Zn2+ response in live cells. To examine the cellular uptake of ZIMIR, the inventors used a mouse insulinoma cell line, MIN6 (Miyazaki et al., 1990). When ZIMIR was incubated with cells at 1 μM concentration, it rapidly adhered to the cell surface of intact living cells (data not shown). In order to test the specificity and stability of membrane labeling, the inventors used confocal laser scanning microscopy (CLSM) to follow the cellular uptake and distribution of ZIMIR in MIN6 cells (FIGS. 4A-F). Within 5 min after probe addition, there was already a clear accumulation of ZIMIR along the plasma membrane (FIGS. 4A-B). By 20 min, the cellular uptake of ZIMIR appeared to reach completion (FIGS. 4C-D). […]
smiles,measurement,setting,value
CCCCCCCCCCCCN(CC(=O)O)Cc1c2oc3c(CN(CCCCCCCCCCCC)CC(=O)O)c(O)ccc3c(-c3cc(NCCN(CCc4ccccn4)Cc4ccccn4)ccc3C(=O)O)c-2ccc1=O [ZIMIR],"distribution of dye in islets (3D, CLSM)","[1]; ZIMIR 2 μM for 25 min, mouse and human islets","taken up by cells throughout the islets, from the mantle to the core"
same,ZIMIR fluorescence change in islets upon KCl depolarization,"[1]; mouse islet, high concentration of KCl (40 mM)",robust and synchronized enhancement of ZIMIR fluorescence
same,time to clear accumulation along the plasma membrane,"[2]; 1 μM ZIMIR, MIN6 cells, CLSM",≤ 5 min
same,time to completion of cellular uptake,"[2]; 1 μM ZIMIR, MIN6 cells, CLSM",≤ 20 min
same,membrane retention upon washing,[2]; repetitive washings after labeling,did not change membrane fluorescence intensity
